Key:
[1] = target: T1, Full length human recombinant HDAC8 protein (Homo sapiens, UniProt Q9BY41); assay: In vitro histone deacetylase assay: enzymatic HDAC8 assay, electrophoretic mobility shift; type: biochemical; conditions: substrate RHKK(Ac)-NH2, 1 nM enzyme, compounds listed under IC50 range headings
T1 construct: Full length human recombinant HDAC8 protein was expressed in baculoviral system; made in house
T1 sequence (Q9BY41 1-377): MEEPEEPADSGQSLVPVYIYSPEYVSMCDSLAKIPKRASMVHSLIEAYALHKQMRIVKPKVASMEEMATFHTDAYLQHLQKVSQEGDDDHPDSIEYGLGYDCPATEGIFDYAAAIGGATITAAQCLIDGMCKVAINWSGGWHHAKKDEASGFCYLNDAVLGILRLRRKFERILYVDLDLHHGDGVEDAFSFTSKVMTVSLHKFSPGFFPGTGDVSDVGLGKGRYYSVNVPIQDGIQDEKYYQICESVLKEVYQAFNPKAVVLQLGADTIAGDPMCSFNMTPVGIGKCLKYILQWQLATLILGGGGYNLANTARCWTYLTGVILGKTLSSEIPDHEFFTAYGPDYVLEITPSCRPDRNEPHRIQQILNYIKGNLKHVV
Procedure, shortened: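 Readout was microfluidic mobility-shift separation of deacetylated product from fluorescent RHKK(Ac)-NH2 substrate (2 µM), after reaction with 1 nM recombinant full-length human HDAC8 at 25 °C, pH 7.5, stopped with SDS. Twelve 3-fold-spaced concentrations tested; product/sum ratios normalized to controls and fitted with a 4-parameter model for IC50.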

[2] = target: T2, Recombinant N-terminal GST tag full-length human HDAC8 (Homo sapiens, UniProt Q9BY41); assay: HDAC8 probe binding assay, time resolved fluorescence (TRF); conditions: fluorescein labeled pan-HDAC inhibitor probe, 16 hours incubation, compounds listed under IC50 range headings
T2 construct: Recombinant N-terminal GST tag full-length human HDAC8; purchased SignalChem H90-30G-1000; host or cells: Sf9 insect cells (baculovirus)
T2 sequence (Q9BY41 1-377): T1 sequence (Q9BY41 1-377)
Procedure, shortened: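 TR-FRET probe displacement using GST-tagged full-length human HDAC8 (Sf9-expressed, 2.5 nM) with 1.5 nM fluorescein-labelled pan-HDAC inhibitor probe and anti-GST terbium, in HEPES pH 7.5 buffer with GSH, BGG, Triton X-100. Compounds 25 μM–1.3 nM, 10-point; 16 h at room temperature. IC50 from 4-parameter fit of % inhibition versus no-enzyme and DMSO controls.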

| Structure (SMILES) | IC50 [1] [nM] | IC50 [2] [nM] |
| --- | --- | --- |
| O=C(/C=C/c1ccccc1N1CCN(C(=O)C2(c3cccnc3)CC2)CC1)NO [Example I-321, (E)-N-hydroxy-3-(2-(4-(1-(pyridin-3-yl)cyclopropane-1-carbonyl)piperazin-1-yl)phenyl)acrylamide] | < 1000 | ≤ 1000 |
| O=C(/C=C/c1ccccc1NCc1cccc(N2CCOCC2)c1)NO [Example I-97, (E)-N-hydroxy-3-(2-((3-morpholinobenzyl)amino)phenyl) acrylamide] | < 1000 | ≤ 1000 |
| O=C(/C=C/c1ccccc1NC(=O)c1cccc(C(F)(F)F)c1)NO [Example I-41, (E)-N-(2-(3-(hydroxyamino)-3-oxoprop-1-en-1-yl)phenyl)-3-(trifluoromethyl)benazmide] | < 1000 | ≤ 1000 |
| Cc1onc(-c2c(Cl)cccc2Cl)c1C(=O)Nc1ccccc1/C=C/C(=O)NO [Example I-275, (E)-3-(2,6-dichlorophenyl)-N-(2-(3-(hydroxyamino)-3-oxoprop-1-en-1-yl)phenyl)-5-methylisoxazole-4-carboxamide] | < 1000 | ≤ 1000 |
| NC(=O)CCc1cccc(C(=O)Nc2ccccc2/C=C/C(=O)NO)c1 [Example I-107, (E)-3-(3-amino-3-oxopropyl)-N-(2-(3-(hydroxyamino)-3-oxoprop-1-en-1-yl)phenyl)benzamide] | < 1000 | ≤ 1000 |
| O=C(/C=C/c1ccccc1NC(=O)C1CCc2ccccc2C1)NO (centres unmarked) [Example I-65, (E)-N-(2-(3-(hydroxyamino)-3-oxoprop-1-en-1-yl)phenyl)-1,2,3,4-tetrahydronaphthalene-2-carboxamide] | < 1000 | ≤ 1000 |
| O=C(/C=C/c1ccccc1N1CC[C@@H](c2ccccc2)C1=O)NO (single isomer, unassigned) [Example I-328] | < 1000 | ≤ 1000 |
| O=C(/C=C/c1ccccc1NCc1ccccn1)NO [Example I-89] | < 1000 | ≤ 1000 |
| O=C(/C=C/c1ccccc1N1CCN(Cc2ccc(F)cc2)CC1=O)NO [Example I-530, (E)-3-(2-(4-(4-fluorobenzyl)-2-oxopiperazin-1-yl)phenyl)-N-hydroxyacrylamide] | < 1000 | ≤ 1000 |
| CC(C)CCC(=O)Nc1ccccc1/C=C/C(=O)NO [Example I-67, (E)-N-(2-(3-(hydroxyamino)-3-oxoprop-1-en-1-yl)phenyl)-4-methylpentanamide] | < 1000 | ≤ 1000 |
| O=C(/C=C/c1ccccc1N1CCN(Cc2ccc(N3CCCC3)nc2)CC1)NO [Example I-182, (E)-N-hydroxy-3-(2-(4-((6-(pyrrolidin-1-yl)pyridin-3-yl)methyl)piperazin-1-yl)phenyl)acrylamide] | < 1000 | ≤ 1000 |
| Cn1cncc1CN1CCN(c2ccccc2/C=C/C(=O)NO)CC1 [Example I-180, (E)-N-hydroxy-3-(2-(4-((1-methyl-1H-imidazol-5-yl)methyl)piperazin-1-yl)phenyl)acrylamide] | < 1000 | ≤ 1000 |
| O=C(NO)/C(F)=C/c1ccccc1NC(=O)c1cccc(C(F)(F)F)c1 [Example I-324, (Z)—N-(2-(2-fluoro-3-(hydroxyamino)-3-oxoprop-1-en-1-yl)phenyl)-3-(trifluoromethyl)benzamide] | < 1000 | ≤ 1000 |
| O=C(/C=C/c1ccccc1NC(=O)c1ccc2[nH]ccc2c1)NO [Example I-62, (E)-N-(2-(3-(hydroxyamino)-3-oxoprop-1-en-1-yl)phenyl)-1H-indole-5-carboxamide] | < 1000 | ≤ 1000 |
| N#Cc1cccc(C(=O)Nc2ccccc2/C=C/C(=O)NO)c1 [Example I-44, (E)-3-cyano-N-(2-(3-(hydroxyamino)-3-oxoprop-1-en-1-yl)phenyl)benzamide] | < 1000 | ≤ 1000 |
| Cc1ccc(N2CCN(c3ccccc3/C=C/C(=O)NO)C(=O)C2)cc1 [Example I-533, (E)-N-hydroxy-3-(2-(2-oxo-4-(p-tolyl)piperazin-1-yl)phenyl)acrylamide] | < 1000 | ≤ 1000 |
| O=C(/C=C/c1ccccc1N1CCC2(CCNCC2)C1)NO [Example I-115, (E)-3-(2-(2,8-diazaspiro[4.5]decan-2-yl)phenyl)-N-hydroxyacrylamide 2,2,2-trifluoroacetate] | < 1000 | ≤ 1000 |

| Structure (SMILES) | IC50 [1] [nM] | IC50 [2] [nM] |
| --- | --- | --- |
| CC(=O)Nc1cccc(CNc2ccccc2/C=C/C(=O)NO)c1 [Example I-43, (E)-3-(2-((3-acetamidobenzyl)amino)phenyl)-N-hydroxyacrylamide] | < 1000 | 1000 to 100000 |
| Cc1cc(CN2CCN(c3ccccc3/C=C/C(=O)NO)CC2)n(C)n1 [Example I-183, (E)-3-(2-(4-((1,3-dimethyl-1H-pyrazol-5-yl)methyl)piperazin-1-yl)phenyl)-N-hydroxyacrylamide] | < 1000 | ≤ 1000 |
| CC(=O)N1CCCC12CCN(c1ccccc1/C=C/C(=O)NO)C2 (centres unmarked) [Example I-545] | < 1000 | ≤ 1000 |
| O=C(/C=C/c1ccccc1C(=O)N1CCC[C@H](Cn2ccnc2)C1)NO [II-27, (R,E)-3-(2-(3-((1H-imidazol-1-yl)methyl)piperidine-1-carbonyl)phenyl)-N-hydroxyacrylamide] | < 1000 | ≤ 1000 |
| Cn1ccnc1S(=O)(=O)N1CCN(c2ccccc2/C=C/C(=O)NO)CC1 [Example I-252, (E)-N-hydroxy-3-(2-(4-((1-methyl-1H-imidazol-2-yl)sulfonyl)piperazin-1-yl)phenyl)acrylamide] | < 1000 | ≤ 1000 |
| O=C(/C=C/c1ccccc1N1CCN(S(=O)(=O)c2ccccc2)CC1=O)NO [Example I-526, (E)-N-hydroxy-3-(2-(2-oxo-4-(phenylsulfonyl)piperazin-1-yl)phenyl)acrylamide] | < 1000 | ≤ 1000 |
| CS(=O)(=O)c1ccc(CNc2ccccc2/C=C/C(=O)NO)cc1 [Example I-95, (E)-N-hydroxy-3-(2-((4-(methylsulfonyl)benzyl)amino)phenyl)acrylamide] | < 1000 | ≤ 1000 |
| COc1ccc(NC(=O)N2CCN(c3ccccc3/C=C/C(=O)NO)C(=O)C2)cc1 [Example I-529, (E)-4-(2-(3-(hydroxyamino)-3-oxoprop-1-en-1-yl)phenyl)-N-(4-methoxyphenyl)-3-oxopiperazine-1-carboxamide] | < 1000 | ≤ 1000 |
| Cc1ncsc1C(=O)N1CCN(c2ccccc2/C=C/C(=O)NO)CC1 [Example I-200, (E)-N-hydroxy-3-(2-(4-(4-methylthiazole-5-carbonyl)piperazin-1-yl)phenyl)acrylamide] | < 1000 | ≤ 1000 |
| O=C(/C=C/c1ccccc1NC(=O)[C@H]1C[C@@H]1c1ccccc1)NO [Example I-83, (1S,2S)-N-(2-((E)-3-(hydroxyamino)-3-oxoprop-1-en-1-yl)phenyl)-2-phenylcyclopropane-1-carboxamide] | < 1000 | ≤ 1000 |
| O=C(/C=C/c1ccccc1NCc1nccs1)NO [Example I-91, (E)-N-hydroxy-3-(2-((thiazol-2-ylmethyl)amino)phenyl)acrylamide] | < 1000 | ≤ 1000 |
| Cc1onc(-c2ccccc2Cl)c1C(=O)Nc1ccccc1/C=C/C(=O)NO [Example I-320, (E)-3-(2-chlorophenyl)-N-(2-(3-(hydroxyamino)-3-oxoprop-1-en-1-yl)phenyl)-5-methylisoxazole-4-carboxamide] | < 1000 | ≤ 1000 |
| O=C(/C=C/c1ccccc1NC(=O)c1cccc(CCCO)c1)NO [Example I-49, (E)-N-(2-(3-(hydroxyamino)-3-oxoprop-1-en-1-yl)phenyl)-3-(3-hydroxypropyl)benzamide] | < 1000 | ≤ 1000 |
| CCCn1c(C(=O)Nc2ccccc2/C=C/C(=O)NO)cc2ccccc21 [Example I-270, (E)-N-(2-(3-(hydroxyamino)-3-oxoprop-1-en-1-yl)phenyl)-1-propyl-1H-indole-2-carboxamide] | < 1000 | ≤ 1000 |
| O=C(/C=C/c1ccccc1NC(=O)C1CCC2(CC1)CC2)NO [Example I-84, (E)-N-(2-(3-(hydroxyamino)-3-oxoprop-1-en-1-yl)phenyl)spiro[2.5]octane-6-carboxamide] | < 1000 | ≤ 1000 |
| O=C(/C=C/c1ccccc1NC(=O)c1cccc(Oc2ccccc2)c1)NO [Example I-536, (E)-N-(2-(3-(hydroxyamino)-3-oxoprop-1-en-1-yl)phenyl)-3-phenoxybenzamide] | < 1000 | ≤ 1000 |
| O=C(/C=C/c1ccccc1NC(=O)c1ccc(C(F)(F)F)cc1)NO [Example I-61, (E)-N-(2-(3-(hydroxyamino)-3-oxoprop-1-en-1-yl)phenyl)-4-(trifluoromethyl)benzamide] | < 1000 | ≤ 1000 |

— patent US10508077B2 (FORMA Therapeutics, Inc., priority 2015, dated 2019)
